Assay results reported in PMC10107917 (ACS Medicinal Chemistry Letters, 2023).
Bridge positions count the residues as written; N and C are the ends. Peptide text beside a SMILES is read from it.

Tests used:
matriptase-1 (MT1) = target: T1, matriptase-1 (MT1) (Homo sapiens, UniProt Q9Y5Y6); experiment: Selectivity assay against matriptase-1; format: biochemical; conditions: Figure S1
T1 construct: Recombinant human matriptase-1/ST14 catalytic domain; purchased R&D Systems, USA
T1 sequence (Q9Y5Y6 615-854 limits assumed): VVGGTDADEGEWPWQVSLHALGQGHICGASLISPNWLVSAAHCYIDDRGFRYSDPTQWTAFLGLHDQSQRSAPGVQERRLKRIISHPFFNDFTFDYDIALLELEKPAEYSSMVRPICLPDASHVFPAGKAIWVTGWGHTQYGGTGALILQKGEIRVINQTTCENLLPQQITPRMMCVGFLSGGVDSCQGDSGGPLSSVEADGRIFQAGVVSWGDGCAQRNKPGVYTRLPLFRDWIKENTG
Method: (§1) The selectivities of the strongest furin inhibitors 3, 5, 6, and FI were assessed using commercially available, purified, recombinant proteases, namely, matriptase-1 (MT1) and matriptase-2 (MT2). Both enzymes belong to the type II transmembrane serine proteases, present trypsin-like specificity, and share high structural similarity but differ in biological activity.[33] […]
(§2) The IC50 values (inhibitor concentrations giving 50% inhibition of enzyme activity) were calculated from plots of enzyme activity (% of control sample) versus the inhibitor’s concentration using a four-parameter fit model (GraFit 5.0.12 Erithacus Software Ltd.). The IC50 values were determined from triplicate measurements with at least seven different inhibitor concentrations. The K i values […] were calculated using the Cheng-Prusoff equation, assuming the competitive mode of inhibition, according to the following relationship: IC50 = K i(1+S/Km). All measurements were performed using a Fluostar Omega microplate reader (BMG Labtech, Germany) and 96-well black plates (BRAND, Germany). Recombinant human matriptase-1/ST14 catalytic domain was purchased from R&D Systems, USA. Recombinant human matriptase-2 was obtained from Enzo Life Sciences, Switzerland.
(§3) Soluble human recombinant furin was kindly gifted by Dr Anna Kwiatkowska (group of Prof. Robert Day from Université de Sherbrooke).4
(§4) The following assay buffers were used: […] (matriptase-1 and matriptase-2), pH 7.5 100 mM HEPES with 1 mM CaCl 2 and 1.8 mg/mL BSA (furin). The substrates used in the assays were as follows: for matriptase-1 and matriptase-2 Boc-Gln-Ala-Arg-AMC (Pepta Nova, Germany) in final concentration of 5 µM, for furin […] (Pepta Nova, Germany) in final concentration of 20 µM. Enzymes concentrations were as follows: 1.25 ng/mL of matriptase-1, 1.51 U/mL for matriptase-2, and 1.1 nM for furin. In the case of matriptase-1 and matripase-2 concentrations were calculated according to information provided by the suppliers.
(§5) In short, the tested compounds were added to the appropriate protease in different concentrations and incubated in an assay buffer at 37 °C for 30 min. […] Reactions were monitored for at least 40 min at 37 °C. […] The percentage inhibition of an enzyme was calculated relative to the control sample without an inhibitor. The K m value for furin substrate was determined by incubating the enzyme with its substrate in various concentrations as recommended.5 Plots of the substrate concentration versus the initial reaction velocity were analyzed according to Michaelis-Menten equation using GraFit 5.0.12 Erithacus Software Ltd. A double reciprocal (Lineweaver-Burk) plot was used to determine the Michaelis constant K m value. […]

matriptase-2 (MT2) = target: T2, matriptase-2 (MT2) (Homo sapiens, UniProt Q8IU80); experiment: Selectivity assay against matriptase-2; format: biochemical; conditions: Figure S1
T2 construct: purchased Enzo Life Sciences, Switzerland
T2 sequence (Q8IU80 1-811): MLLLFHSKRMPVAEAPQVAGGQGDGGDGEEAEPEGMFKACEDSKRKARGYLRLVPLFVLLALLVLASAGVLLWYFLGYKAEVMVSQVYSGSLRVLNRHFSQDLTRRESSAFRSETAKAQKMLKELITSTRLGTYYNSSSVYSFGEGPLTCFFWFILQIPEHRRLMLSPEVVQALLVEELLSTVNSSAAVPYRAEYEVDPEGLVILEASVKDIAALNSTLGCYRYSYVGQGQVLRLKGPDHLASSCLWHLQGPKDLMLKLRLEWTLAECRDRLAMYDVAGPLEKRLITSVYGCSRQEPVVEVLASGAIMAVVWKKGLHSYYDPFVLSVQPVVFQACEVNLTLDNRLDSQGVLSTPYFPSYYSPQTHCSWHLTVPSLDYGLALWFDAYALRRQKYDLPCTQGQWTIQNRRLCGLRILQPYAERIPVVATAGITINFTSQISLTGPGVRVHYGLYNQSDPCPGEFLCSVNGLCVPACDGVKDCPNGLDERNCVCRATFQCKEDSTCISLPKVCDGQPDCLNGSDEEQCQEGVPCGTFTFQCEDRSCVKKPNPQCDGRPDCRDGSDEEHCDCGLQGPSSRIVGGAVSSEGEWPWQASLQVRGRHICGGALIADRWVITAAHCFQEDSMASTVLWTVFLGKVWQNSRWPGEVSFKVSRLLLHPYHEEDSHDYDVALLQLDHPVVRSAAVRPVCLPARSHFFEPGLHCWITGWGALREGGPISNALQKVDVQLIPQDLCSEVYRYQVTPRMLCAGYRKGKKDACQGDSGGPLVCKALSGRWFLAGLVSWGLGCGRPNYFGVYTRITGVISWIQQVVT
Method: as §1, §2, §3, §4, §5

| Compound | activity against MT1 (matriptase-1 (MT1)) | activity in assay with MT2 (matriptase-2 (MT2)) |
| --- | --- | --- |
| CC[C@H](C)[C@@H]1NC(=O)[C@@H]2CCCN2C(=O)[C@@H]2CCCN2C(=O)[C@H]([C@@H](C)CC)NC(=O)[C@H](CO)NC(=O)[C@H](CCCCN)NC(=O)[C@H](CCCCN)NC(=O)[C@@H](NC(=O)[C@H](CCCNC(=N)N)NC(=O)[C@@H](N)CCCCN)CSSC[C@@H](C(=O)N[C@@H](Cc2ccccc2)C(N)=O)NC1=O [FI, Lys-Arg-Cys(&)-Lys-Lys-Ser-Ile-Pro-Pro-Ile-Cys(&)-Phe-NH2, reference compound] (H-KRCKKSIPPICF-NH2; disulfide 3-11; N-terminus assumed) | not active | only irrelevant activity |
| CC[C@H](C)[C@@H]1NC(=O)[C@@H]2CCCN2C(=O)[C@@H]2CCCN2C(=O)[C@H]([C@@H](C)CC)NC(=O)[C@H](CO)NC(=O)[C@H](CCCCN)NC(=O)[C@H](CCCCN)NC(=O)[C@@H](NC(=O)[C@H](CCCNC(=N)N)NC(=O)[C@H](CCCNC(=N)N)NC(=O)[C@@H](N)CCCNC(=N)N)CSSC[C@@H](C(=O)N[C@@H](Cc2ccccc2)C(N)=O)NC1=O [inhibitor 3, Arg-Arg-Arg-Cys(&)-Lys-Lys-Ser-Ile-Pro-Pro-Ile-Cys(&)-Phe-NH2] (H-RRRCKKSIPPICF-NH2; disulfide 4-12) | not active | only irrelevant activity |
| CC[C@H](C)[C@@H]1NC(=O)[C@@H]2CCCN2C(=O)[C@@H]2CCCN2C(=O)[C@H]([C@@H](C)CC)NC(=O)[C@H](CO)NC(=O)[C@H](CCCCN)NC(=O)[C@H](CCCCN)NC(=O)[C@@H]2CSSC[C@H](NC1=O)C(=O)N[C@@H](Cc1ccccc1)C(=O)N[C@@H](CCCCN)C(=O)N[C@@H](CCCNC(=N)N)C(=O)N[C@@H](CCCNC(=N)N)C(=O)N2 [inhibitor 5, &^1Lys-Arg-Arg-Cys(&^2)-Lys-Lys-Ser-Ile-Pro-Pro-Ile-Cys(&^2)-Phe&^1] (cyclo(KRRCKKSIPPICF); disulfide 4-12) | not active | only irrelevant activity |
| CC[C@H](C)[C@@H]1NC(=O)[C@@H]2CCCN2C(=O)[C@@H]2CCCN2C(=O)[C@H]([C@@H](C)CC)NC(=O)[C@H](CO)NC(=O)[C@H](CCCCN)NC(=O)[C@H](CCCCN)NC(=O)[C@@H]2CSSC[C@H](NC1=O)C(=O)N[C@@H](Cc1ccccc1)C(=O)N[C@@H](CCCNC(=N)N)C(=O)N[C@@H](CCCNC(=N)N)C(=O)N[C@@H](CCCNC(=N)N)C(=O)N2 [inhibitor 6, &^1Arg-Arg-Arg-Cys(&^2)-Lys-Lys-Ser-Ile-Pro-Pro-Ile-Cys(&^2)-Phe&^1] (cyclo(RRRCKKSIPPICF); disulfide 4-12) | not active | only irrelevant activity |
